Where two headings read alike, the source gives them in different places.
Legend:
[1] = cited from earlier work
[2] = copper-chelating activity assay (pyrocatechol violet); conditions: 5 mM
Description: The copper-chelating activity of compound 4 was assessed using previously reported protocol[44] with minor modifications. […] After that, the absorbance of each well was measured at 620 nm. The copper-chelating activity was calculated using the formula: Copper-chelating activity (%) = [(Acon – Asam)/Acon] × 100, where Acon and Asam are the absorbance of the control and test sample, respectively.

[3] = system: B16F10 murine melanoma cells; experiment: melanin assay in α-MSH-stimulated cells; format: cell-based
Description: Melanin production was assessed according to the methodology outlined in a previous study. B16F10 cells were cultured in 6-well plates at a density of 100,000 cells per well. After overnight incubation, the cells were treated with different concentrations of the test compound for 48 h. Note that 1 μM of α-melanocyte-stimulating hormone (α-MSH) (Sigma Aldrich, St. Louis, MO, USA) was used to induce melanin synthesis. Following treatment, the cells were washed twice with PBS, detached using trypsin/EDTA, and centrifuged at 3,000×g for 5 min. The resulting cell pellets, containing approximately 700,000 cells, were solubilised in 2 M NaOH and heated at 100 °C for 30 min. Melanin content was quantified by measuring absorbance at 405 nm.

mushroom tyrosinase = mushroom tyrosinase activity assay (L-DOPA substrate); format: biochemical; conditions: mean ± SEM
Description: The procedure for the mushroom tyrosinase activity assay was conducted in accordance with the methodology described in a previous report. […] In a 96-well plate, 40 μL of mushroom tyrosinase (5 U/μL, Sigma Aldrich, St. Louis, MO, USA) was added to each well, followed by 50 μL of the test compound at various concentrations. After that, 10 μL of 50 mM L-DOPA (purity ≥98%, Sigma-Aldrich, St. Louis, MO, USA) were added and incubated in darkness at 37 °C for 15 min. Finally, the absorbance was measured at 450 nm. The experiment was conducted in triplicate. IC50 values were determined using GraphPad Prism 10.2.2 software.

cytotoxicity MTT assay = format: cell-based, murine; conditions: mouse, B16F10 melanoma cells, read-out: cell viability
Description: Cell viability was determined using the MTT assay (3-(4,5-dimethylthiazol-2-yl)-2,5-diphenyltetrazolium bromide). B16F10 (murine melanoma cell line) was purchased from American Type Culture Collection (ATCC, Manassas, VA, USA). B16F10 cells were seeded into 96-well plates at a density of 1500 cells per well. After overnight incubation, the cells were treated with different concentrations of the test compound for 48 h. Following this, MTT reagent was added to each well and incubated for 3 h. The culture medium was then removed, and 100 μL of DMSO was used to dissolve the formazan crystals. Absorbance was measured at 540 nm to evaluate cell viability.

tyrosinase = conditions: cited from earlier work

For `Sc1nc2ccccc2s1` [Compound 2-TBT, 2-thiobenzothiazole], the Copper-chelating activity [1] is listed as 48% to 69.

For `S=C(NCc1ccc(CNC(=S)Nc2ccc(Cl)cc2)cc1)Nc1ccc(Cl)cc1` [Compound 4], the Copper-chelating activity [2] was 64%, the melanin production ([3]; 10 and 30 μM, 48 h, α-MSH (1 μM)-treated B16F10, vs α-MSH group) was “significantly inhibited melanin production” and the “anti-melanogenic activity compared to KA” value ([3]; α-MSH-stimulated B16F10, approximately) was 30–100 times. The IC50 (mushroom tyrosinase) was 61.6 ± 7.82 µM, the viability at 48 h, 1 µM (cytotoxicity MTT assay; 1 μM) was ~90% and the viability at 48 h, 3 µM (cytotoxicity MTT assay; 3 μM) was ~90%. For the same molecule, the viability at 48 h, 10 µM (cytotoxicity MTT assay; 10 μM) was ~75%, the viability at 48 h, 30 µM (cytotoxicity MTT assay; 30 μM) was ~50% and the viability at 48 h, 100 µM (cytotoxicity MTT assay; 100 μM) was < 40%.

In the case of `S=C1NCCCc2occc21` [Compound T4FAT, 5,6,7,8-tetrahydro-4H-furo[3,2-c]azepine-4-thione], the copper ions chelated ([1]; 200 mM ref 63) is listed as “more than 80%”.

With `O=C(O)CN(CCN(CC(=O)O)CC(=O)O)CC(=O)O` [EDTA, ethylenediaminetetraacetic acid] the Copper-chelating activity [2] was 95%.

In the case of `O=c1cc(CO)occ1O` [KA, kojic acid], the Copper-chelating activity [2] is reported as 75% and the melanin content ([3]; 1000 μM, 48 h, α-MSH-stimulated B16F10, vs α-MSH group) is reported as “reduced melanin content significantly”.

For `N=C(N)NN=C1C=CC(=NNC(N)=S)C=C1` [ambazone], the IC50 (tyrosinase) is given as 15 µM.

In the case of `C[C@@H]1[C@H](O)[C@@H](C)/C=C/C=C/C=C/C=C/C=C/C=C/C=C/[C@H](O[C@@H]2O[C@H](C)[C@@H](O)[C@H](N)[C@@H]2O)C[C@@H]2O[C@](O)(C[C@@H](O)C[C@@H](O)[C@H](O)CC[C@@H](O)C[C@@H](O)CC(=O)O[C@H]1C)C[C@H](O)[C@H]2C(=O)O` [amphotericin B], the IC50 (tyrosinase) is listed as 263 ± 11.8 µM.

In the case of `CC1(C)C=Cc2c(O)ccc(C3=Cc4ccc(O)cc4OC3)c2O1` [glabrene], the IC50 (tyrosinase) is given as 7600 µM.

For `CC(=O)Nc1ccc(/C=N/NC(N)=S)cc1` [thioacetazone], the IC50 (tyrosinase) is listed as 14 µM.

— article PMC12897533, “Discovery of bis-thiourea derivatives as potent tyrosinase inhibitors: combined experimental and computational study” (Journal of Enzyme Inhibition and Medicinal Chemistry, 2025)
